Tests used:
[1] = tested on: CD34-expressing LT-HSPCs from a human donor with sickle cell disease; assay: Hemoglobin expression (HbS, HbA) by HPLC in edited differentiated patient LT-HSPCs; assay type: cell-based; conditions: FIG. 32B
Protocol: Hemoglobin expressed by edited cells that were differentiated to erythrocytes was assessed. Hemoglobin A (HbA) is composed of 2 alpha-globin and 2 beta-globin units and is the dominant hemoglobin in adult humans. In human carriers of the HBB E6V mutation, a high proportion of total hemoglobin is hemoglobin S (HbS), which is composed of 2 alpha-globin units and 2 beta-globin units with E6V.
Briefly, on day 18 post-editing, 1×10^6 cells were harvested, centrifuged, and washed with PBS. The cells were prepared for HPLC analysis. Hemoglobin variants were quantified in cell samples using reverse-phase HPLC chromatography and gradient elution. […] Thus, high levels of HDR achieved with i53 contribute to normalization of hemoglobin expression products.

[2] = tested on: HBB locus in CD34-expressing LT-HSPCs; assay: Indel formation at HBB locus in vitro by TIDE analysis; assay type: cell-based, human; conditions: FIG. 11
Protocol: The cells were electroporated with 1 g mRNA encoding i53.
Editing efficiency at the HBB locus was evaluated by measuring indel formation by TIDE analysis. […] This group had 1.7-fold reduction in INDEL frequency relative to cells treated with RNP+AAV,

Question: Which results are given for “i53: polypeptide inhibitor of 53BP1 (SEQ ID NO: 70), delivered as mRNA (ORF SEQ ID NO: 69)”?
Answer: decrease in HbS levels relative to mock EP control cells [1]: 90%; level of indel formation [2]: lowest level of indel formation
